Assay results published in patent US20220356170A1, “SREBP INHIBITOR COMPRISING A THIOPHENE CENTRAL RING” (Capulus Therapeutics, LLC, priority 2019, published 2022).

Experiments:
Experiment in all cases: Cancer cell growth inhibition, Sulforhodamine B
Assay type in all cases: cell-based
[1] = tested on: NCIH292; conditions: Homo sapiens, NCI-H292; NCIH292 (lung), 72 hr; Non-Responder Cell Lines with IC50 >10 uM or Not Determined
Protocol: (§1) The ability of select compounds to inhibit cell growth in various cancer cell lines are evaluated. […] The cell lines shown in Table 5 have reduced growth by at least 50% at 10 uM or lower over 72 hr treatment in growth media. The cell lines shown in Table 6 have reduced growth by at least 50% with an IC50 greater than 10 uM.
(§2) Six 10-fold compound dilutions are prepared in DMSO (e.g. 10 mM, 1 mM, 100 uM, 10 uM, 1 uM, and 0.1 uM). Single data points are acquired for each concentration. The final concentration of DMSO is 0.1%. The duration of the treatment is 72 hr. Growth inhibition is measured using Sulforhodamine B in a protein staining assay. Activity of the agents is determined by evaluation the following parameters: IC50, GI50, IC10, TGI, LC50, IC90, and GI90 (where these values can be calculated).

[2] = tested on: PC3; conditions: Homo sapiens, PC-3; PC3 (prostate), 72 hr; Non-Responder Cell Lines with IC50 >10 uM or Not Determined
Protocol: as §1, §2

[3] = tested on: ACHN; conditions: Homo sapiens; ACHN (kidney), 72 hr; Responder Cell Lines
Protocol: as §1, §2

[4] = tested on: A204; conditions: Homo sapiens; A204 (muscle), 72 hr; Responder Cell Lines
Protocol: as §1, §2

[5] = tested on: SKHEP1; conditions: Homo sapiens, SK-HEP1, 72 h, SKHEP1 (liver)
Protocol: as §1, §2

[6] = tested on: EFO21; conditions: Homo sapiens, EFO-21; EFO21 (ovary), 72 hr; Responder Cell Lines
Protocol: as §1, §2

[7] = tested on: JAR; conditions: JAR (placenta), 72 hr; Responder Cell Lines
Protocol: as §1, §2

[8] = tested on: ASPC1; conditions: Homo sapiens; ASPC1 (pancreas), 72 hr; Responder Cell Lines
Protocol: as §1, §2

[9] = tested on: PANC1; conditions: Homo sapiens, PANC-1; PANC1 (pancreas), 72 hr; Non-Responder Cell Lines with IC50 >10 uM or Not Determined
Protocol: as §1, §2

[10] = tested on: RAMOS; conditions: Homo sapiens, 72 h, RAMOS (hematological)
Protocol: as §1, §2

[11] = tested on: PLCPRF5; conditions: Homo sapiens, PLC-PRF-5, 72 h, PLCPRF5 (liver)
Protocol: as §1, §2

[12] = tested on: UO31; conditions: Homo sapiens, UO-31; UO31 (kidney), 72 hr; Non-Responder Cell Lines with IC50 >10 uM or Not Determined
Protocol: as §1, §2

[13] = tested on: PANC1005; conditions: Homo sapiens, Panc1005, 72 h, PANC1005 (pancreas)
Protocol: as §1, §2

[14] = tested on: MDAMB436; conditions: Homo sapiens, MDA-MB-436; MDAMB436 (breast), 72 hr; Non-Responder Cell Lines with IC50 >10 uM or Not Determined
Protocol: as §1, §2

[15] = tested on: T24; conditions: Homo sapiens, T-24; T24 (bladder), 72 hr; Non-Responder Cell Lines with IC50 >10 uM or Not Determined
Protocol: as §1, §2

[16] = tested on: SW620; conditions: Homo sapiens, SW-620; SW620 (colon), 72 hr; Non-Responder Cell Lines with IC50 >10 uM or Not Determined
Protocol: as §1, §2

[17] = tested on: COLO205; conditions: Homo sapiens, COLO 205; COLO205 (colon), 72 hr; Responder Cell Lines
Protocol: as §1, §2

[18] = tested on: K-562; conditions: Homo sapiens, K562; K-562 (hematological), 72 hr; Responder Cell Lines
Protocol: as §1, §2

[19] = tested on: SKMEL28; conditions: Homo sapiens, SK-MEL-28; SKMEL28 (skin), 72 hr; Non-Responder Cell Lines with IC50 >10 uM or Not Determined
Protocol: as §1, §2

[20] = tested on: JEG3; conditions: Homo sapiens, JEG-3; JEG3 (placenta), 72 hr; Responder Cell Lines
Protocol: as §1, §2

[21] = tested on: OVCAR3; conditions: Homo sapiens, OVCAR-3, 72 h, OVCAR3 (ovary)
Protocol: as §1, §2

[22] = tested on: SNB75; conditions: Homo sapiens, SNB-75; SNB75 (brain), 72 hr; Non-Responder Cell Lines with IC50 >10 uM or Not Determined
Protocol: as §1, §2

[23] = tested on: RD; conditions: Homo sapiens; RD (muscle), 72 hr; Non-Responder Cell Lines with IC50 >10 uM or Not Determined
Protocol: as §1, §2

[24] = tested on: MCF7; conditions: Homo sapiens; MCF7 (breast), 72 hr; Responder Cell Lines
Protocol: as §1, §2

[25] = tested on: HEPG2; conditions: Homo sapiens; HEPG2 (liver), 72 hr; Responder Cell Lines
Protocol: as §1, §2

[26] = Non-Responder Cell Lines with IC50 >10 uM or Not Determined

- IC50 [1]: > 10 µM
- IC50 [2]: > 10 µM
- IC50 [3]: < 10 µM
- IC50 [4]: < 10 µM
- IC50 [5, 26]: > 10 µM
- IC50 ([5]; Responder Cell Lines): < 10 µM
- IC50 [6]: < 10 µM
- IC50 [7]: < 10 µM
- IC50 [8]: < 10 µM
- IC50 [9]: > 10 µM
- IC50 [10, 26]: > 10 µM
- IC50 ([10]; Responder Cell Lines): < 10 µM
- IC50 [11, 26]: > 10 µM
- IC50 ([11]; Responder Cell Lines): < 10 µM
- IC50 [12]: > 10 µM
- IC50 [13, 26]: > 10 µM
- IC50 ([13]; Responder Cell Lines): < 10 µM
- IC50 [14]: > 10 µM
- IC50 [15]: > 10 µM
- IC50 [16]: > 10 µM
- IC50 [17]: < 10 µM
- IC50 [18]: < 10 µM
- IC50 [19]: > 10 µM
- IC50 [20]: < 10 µM
- IC50 [21, 26]: > 10 µM
- IC50 ([21]; Responder Cell Lines): < 10 µM
- IC50 [22]: > 10 µM
- IC50 [23]: > 10 µM
- IC50 [24]: < 10 µM
- IC50 [25]: < 10 µM
Compound: CC(C)(O)c1cc(-c2csc(-c3ccc(C(=O)N4CCC(O)CC4)cc3Cl)c2)ccn1 [Compound 1, (3-chloro-4-(4-(2-(2-hydroxypropan-2-yl)pyridin-4-yl)thiophen-2-yl)phenyl)(4-hydroxypiperidin-1-yl)methanone]
